According to PubChem BioAssay (NCI):
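Protocol summary: plate cells (96-well), add compound at 5 concentrations, incubate 48 h, interpolate endpoints linearly. GI50 = concentration required for 50% inhibition of growth. The concentration for full growth arrest is given as TGI.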

Columns and labels:
Assay in all cases: NCI-60 cell line screen, 48 h
[1] = system: HOP-92 NSCLC
[2] = system: NCI-H23 lung
[3] = system: SN12C renal
[4] = system: UO-31 renal
[5] = system: CAKI-1 renal
[6] = system: MDA-MB-231 breast
[7] = system: K-562 leukemia
[8] = system: SNB-19 CNS
[9] = system: HL-60(TB) leukemia
[10] = system: LOX IMVI melanoma

SMILES	GI50 [1]	TGI [1]	GI50 [2]	TGI [2]	GI50 [3]	TGI [3]	GI50 [4]	TGI [4]	GI50 [5]	TGI [5]	GI50 [6]	TGI [6]	GI50 [7]	TGI [7]	GI50 [8]	TGI [8]	GI50 [9]	TGI [9]	GI50 [10]	TGI [10]
c1cncc(C2Nc3cccc4cccc(c34)N2)c1	22.3 µM	61.2 µM	77.6 µM	> 100 µM	53.4 µM	> 100 µM	11.7 µM	27.4 µM	48.7 µM	> 100 µM	20.3 µM	65.7 µM	28.8 µM	> 100 µM	> 100 µM	> 100 µM	36.6 µM	> 100 µM	21.7 µM	57.6 µM
C/C(=N\NC(=S)N1CC2CCC(CC2)C1)c1cccc(C)n1	–	16.4 µM	–	19.4 µM	0.774 µM	12.6 µM	–	4.94 µM	–	14.2 µM	–	17.8 µM	< 0.0001 µM	–	0.26 µM	14.3 µM	0.00016 µM	4.45 µM	0.179 µM	8.16 µM
CCCCN(CCCC)CCC(O)c1cc2c(Cl)cc(Cl)cc2c2cc(C(F)(F)F)ccc12 (stereo not drawn)	–	10.6 µM	–	30.6 µM	–	20 µM	–	17.4 µM	–	29.3 µM	–	15.3 µM	–	22.4 µM	–	40.6 µM	–	21.8 µM	–	21.9 µM
C/C(=N\NC(=S)N1CCCCCCCCCCCC1)c1ccccn1	–	0.42 µM	–	2.81 µM	–	2.19 µM	–	1.77 µM	–	1.15 µM	–	1.22 µM	–	0.121 µM	–	2.03 µM	–	> 100 µM	–	1.23 µM
O=C(O)CCc1c2ccc(=O)c(O)c-2oc2c(O)c(O)ccc12	–	> 100 µM	–	> 100 µM	–	34.8 µM	–	> 100 µM	–	> 100 µM	–	62.9 µM	–	55.2 µM	–	> 100 µM	–	> 100 µM	–	47.9 µM
COC(=O)C(CBr)CBr	–	3.63 µM	–	19.5 µM	–	9.28 µM	–	10.2 µM	–	10 µM	–	4.36 µM	–	4.29 µM	–	13.3 µM	–	1.41 µM	–	7.75 µM
Cc1[nH]nc2c1N=C(c1ccccc1F)c1cc(C(N)=O)ccc1N2	7.12 µM	> 25 µM	6.85 µM	> 25 µM	4.2 µM	> 25 µM	4.31 µM	> 21.1 µM	3.83 µM	> 19.7 µM	6.8 µM	> 25 µM	1.72 µM	> 25 µM	6.43 µM	> 25 µM	5.97 µM	14.4 µM	2.04 µM	13.2 µM
COc1ccc2c(Cl)cc(NC(=O)Nc3c(C)cccc3C)nc2c1	4.26 µM	27.4 µM	76.9 µM	> 100 µM	15.6 µM	> 100 µM	3 µM	12.7 µM	5.27 µM	> 100 µM	13.3 µM	> 100 µM	60.7 µM	> 100 µM	72.7 µM	> 100 µM	> 100 µM	> 100 µM	17.3 µM	> 100 µM
CCCCNC(=O)c1cc(NCc2cc(O)ccc2O)ccc1O	6.81 µM	21.7 µM	17.1 µM	40.5 µM	13.6 µM	29.5 µM	2.82 µM	12.1 µM	10.8 µM	23.8 µM	7.41 µM	21.7 µM	16.6 µM	75.2 µM	41.4 µM	> 100 µM	2.06 µM	6.2 µM	14.7 µM	29.2 µM
Cc1ccc(C(SCC(N)C(=O)O)(c2ccccc2)c2ccccc2)cc1 (stereo not drawn)	0.288 µM	73.1 µM	0.236 µM	> 96 µM	0.13 µM	> 65.9 µM	13.8 µM	> 100 µM	0.151 µM	> 100 µM	0.0381 µM	0.571 µM	0.0485 µM	> 100 µM	0.125 µM	> 100 µM	0.0878 µM	–	0.247 µM	21.6 µM
N#Cc1c(N)nc(N)nc1N[C@H](c1nc2c(F)ccc(Cl)c2c(=O)n1-c1cccnc1)C1CC1	0.549 µM	7.59 µM	21.8 µM	> 100 µM	10.8 µM	> 100 µM	2.34 µM	21.1 µM	1.69 µM	26.9 µM	11.8 µM	36.3 µM	31.8 µM	> 100 µM	13 µM	28.6 µM	2.28 µM	82.8 µM	5.51 µM	20.1 µM
